Results published in patent publication US11702404B2, “GLP-1R modulating compounds” (priority 2019, dated 2023).
Read-outs that look alike come from different tables or passages of the source.

What was measured:
GLP-1R = GLP-1R (Homo sapiens, UniProt P43220); test: GLP-1R activation: cAMP increase in CHO cells stably expressing GLP-1R; type: cell-based
[1] = Microsomal stability, human liver microsomes (predicted hepatic clearance); details: predicted from in vitro microsomal stability data
[2] = cAMP increase, CHO cells stably expressing GLP-1R, 10 point dose response, 30 minutes incubation, read-out: EC50

Sequence of GLP-1R (P43220 24-463): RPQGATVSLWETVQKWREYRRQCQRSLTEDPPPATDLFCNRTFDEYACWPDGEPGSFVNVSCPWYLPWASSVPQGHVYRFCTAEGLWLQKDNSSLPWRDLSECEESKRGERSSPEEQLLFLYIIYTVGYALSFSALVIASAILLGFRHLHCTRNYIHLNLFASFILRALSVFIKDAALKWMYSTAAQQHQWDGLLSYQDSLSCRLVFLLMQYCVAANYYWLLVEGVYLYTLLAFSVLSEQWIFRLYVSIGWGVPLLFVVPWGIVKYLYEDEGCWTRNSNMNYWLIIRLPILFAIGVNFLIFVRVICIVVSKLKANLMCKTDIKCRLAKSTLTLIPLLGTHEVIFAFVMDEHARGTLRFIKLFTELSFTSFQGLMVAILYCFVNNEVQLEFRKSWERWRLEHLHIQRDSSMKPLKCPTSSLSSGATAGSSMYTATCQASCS

Structure (SMILES)	EC50 (GLP-1R; [2])	Predicted Hepatic Clearance (Pred. Cl.) [1]	EC50 (GLP-1R; EC50 (nM))	EC50 (GLP-1R; read-out: EC50)
COc1cc(C#N)ccc1COc1cccc(-c2cc(F)c(Cc3nc4ccc(C(=O)O)cc4n3CC3(CF)CC3)cc2F)n1 [Example 409, 2-(4-(6-((4-cyano-2-methoxybenzyl)oxy)pyridin-2-yl)-2,5-difluorobenzyl)-1-((1-(fluoromethyl)cyclopropyl)methyl)-1H-benzo[d]imidazole-6-carboxylic acid]	0.37 nM	<0.11 L/h/kg		
CC1(Cn2c(Cc3ccc(-c4cccc(OCc5ccc(C#N)cc5F)n4)cc3C#N)nc3ccc(C(=O)O)cc32)CC1 [Example 117, 2-(2-cyano-4-(6-((4-cyano-2-fluorobenzyl)oxy)pyridin-2-yl)benzyl)-1-((1-methylcyclopropyl)methyl)-1H-benzo[d]imidazole-6-carboxylic acid]	62.2 nM	<0.11 L/h/kg		
COCCn1c(Cc2ccc(-c3cccc(OCc4ccc(C#N)cc4F)n3)cc2NC(=O)OC)nc2ccc(C(=O)O)cc21 [Example 383, 2-(4-(6-((4-cyano-2-fluorobenzyl)oxy)pyridin-2-yl)-2-((methoxycarbonyl)amino)benzyl)-1-(2-methoxyethyl)-1H-benzo[d]imidazole-6-carboxylic acid]		0.52 L/h/kg	123 nM	
COCCn1c(Cc2ccc(-c3cccc(OCc4cc(F)c(C#N)cc4F)n3)cc2F)nc2ccc(C(=O)O)cc21 [Example 262, 2-(4-(6-((4-cyano-2,5-difluorobenzyl)oxy)pyridin-2-yl)-2-fluorobenzyl)-1-(2-methoxyethyl)-1H-benzo[d]imidazole-6-carboxylic acid]	28.6 nM	<0.11 L/h/kg		
N#CCC1(Cn2c(Cc3ccc(-c4ccc(F)c(OCc5ccc(C#N)cc5F)n4)c(F)c3)nc3ccc(C(=O)O)cc32)CC1 [Example 95, 2-(4-(6-((4-cyano-2-fluorobenzyl)oxy)-5-fluoropyridin-2-yl)-3-fluorobenzyl)-1-((1-(cyanomethyl)cyclopropyl)methyl)-1H-benzo[d]imidazole-6-carboxylic]	0.26 nM	0.4 L/h/kg		
O=C(O)c1ccc2nc(Cc3ccc(-c4ccnc(OCc5ccc(C(F)(F)F)cc5F)n4)c(F)c3)n(C[C@@H]3CCO3)c2c1 [Example 788]	0.17 nM	0.33 L/h/kg		
N#Cc1ccc(COc2nccc(-c3ccc(Cc4nc5ccc(C(=O)O)cc5n4CC4(CF)CC4)cc3F)n2)c(F)c1 [Example 350, 2-(4-(2-((4-cyano-2-fluorobenzyl)oxy)pyrimidin-4-yl)-3-fluorobenzyl)-1-((1-(fluoromethyl)cyclopropyl)methyl)-1H-benzo[d]imidazole-6-carboxylic acid]	0.79 nM	0.38 L/h/kg		
CCn1cnnc1Cn1c(Cc2ccc(-c3cccc(OCc4ccc(C#N)cc4F)n3)cc2F)nc2ccc(C(=O)O)cc21 [Example 404, 2-(4-(6-((4-cyano-2-fluorobenzyl)oxy)pyridin-2-yl)-2-fluorobenzyl)-1-((4-ethyl-4H-1,2,4-triazol-3-yl)methyl)-1H-benzo[d]imidazole-6-carboxylic acid]	1.71 nM	<0.11 L/h/kg		
N#Cc1ccc(COc2cccc(-c3cc(F)c(Cc4nc5ccc(C(=O)O)cc5n4Cc4cnccn4)cc3F)n2)c(F)c1 [Example 310, 2-(4-(6-((4-cyano-2-fluorobenzyl)oxy)pyridin-2-yl)-2,5-difluorobenzyl)-1-(pyrazin-2-ylmethyl)-1H-benzo[d]imidazole-6-carboxylic acid]	16.3 nM	0.38 L/h/kg		
N#Cc1ccc(COc2nc(-c3ccc(Cc4nc5c(F)cc(C(=O)O)cc5n4CC45CC(CO4)C5)c(F)c3)ccc2F)c(F)c1 [Example 771]	2.17 nM	0.11 L/h/kg		
COc1cc(C#N)ccc1COc1nccc(-c2cc(F)c(Cc3nc4ccc(C(=O)O)nc4n3CC3(CF)CC3)cc2F)n1 [Example 119, 2-(4-(2-((4-cyano-2-methoxybenzyl)oxy)pyrimidin-4-yl)-2,5-difluorobenzyl)-3-((1-(fluoromethyl)cyclopropyl)methyl)-3H-imidazo[4,5-b]pyridine-5-carboxylic acid]	0.56 nM	<0.11 L/h/kg		
COCCn1c(Cc2ccc(-c3cccc(OCc4cccc(OCC(F)F)c4)n3)cc2F)nc2ccc(C(=O)O)cc21 [Example 139, 2-(4-(6-((3-(2,2-difluoroethoxy)benzyl)oxy)pyridin-2-yl)-2-fluorobenzyl)-1-(2-methoxyethyl)-1H-benzo[d]imidazole-6-carboxylic acid]	26.4 nM	0.43 L/h/kg		
N#CCC1(Cn2c(Cc3cc(F)c(-c4ccc(F)c(OCc5ccc(C#N)cc5F)n4)cc3F)nc3ccc(C(=O)O)cc32)CC1 [Example 153, 2-(4-(6-((4-cyano-2-fluorobenzyl)oxy)-5-fluoropyridin-2-yl)-2,5-difluorobenzyl)-1-((1-(cyanomethyl)cyclopropyl)methyl)-1H-benzo[d]imidazole-6-carboxylic acid]	0.11 nM	0.31 L/h/kg		
O=C(O)c1ccc2nc(Cc3cc(F)c(-c4cccc(OCc5ccc(C(F)F)cc5F)n4)cc3F)n(Cc3ccon3)c2c1 [Example 609]	0.15 nM	0.11 L/h/kg		
N#Cc1ccc(COc2cccc(-c3ccc(Cc4nc5c(F)cc(C(=O)O)cc5n4CC4(CF)CC4)c(F)c3)n2)c(F)c1 [Example 361, 2-(4-(6-((4-cyano-2-fluorobenzyl)oxy)pyridin-2-yl)-2-fluorobenzyl)-4-fluoro-1-((1-(fluoromethyl)cyclopropyl)methyl)-1H-benzo[d]imidazole-6-carboxylic acid]	0.74 nM	0.17 L/h/kg		
N#Cc1ccc(COc2cccc(-c3cc(F)c(Cc4nc5ccc(C(=O)O)cc5n4CC45CC(C4)C(C(F)(F)F)O5)cc3F)n2)c(F)c1 (stereo not drawn) [Example 737]	1.89 nM	0.11 L/h/kg		
N#Cc1ccc(COc2cccc(-c3ccn(Cc4nc5ccc(C(=O)O)cc5n4CC4(n5ccnn5)CC4)c(=O)c3)n2)c(F)c1 [Example 421, 1-((1-(1H-1,2,3-triazol-1-yl)cyclopropyl)methyl)-2-((6-((4-cyano-2-fluorobenzyl)oxy)-2′-oxo-[2,4′-bipyridin]-1′(2′H)-yl)methyl)-1H-benzo[d]imidazole-6-carboxylic acid]	327 nM	<0.11 L/h/kg		
N#Cc1ccc(COc2cccc(-c3cc(F)c(Cc4nc5ccc(C(=O)O)cc5n4Cc4ncccn4)cc3F)n2)c(F)c1 [Example 269, 2-(4-(6-((4-cyano-2-fluorobenzyl)oxy)pyridin-2-yl)-2,5-difluorobenzyl)-1-(pyrimidin-2-ylmethyl)-1H-benzo[d]imidazole-6-carboxylic acid]	51.7 nM	0.35 L/h/kg		
COCCn1c(Cc2cc(F)c(-c3cccc(OCc4ccc(Cl)cc4)n3)cc2F)nc2ccc(C(=O)O)cc21 [Example 602, 2-(4-(6-((4-chlorobenzyl)oxy)pyridin-2-yl)-2,5-difluorobenzyl)-1-(2-methoxyethyl)-1H-benzo[d]imidazole-6-carboxylic acid]	1.17 nM	0.17 L/h/kg		
N#Cc1ccc(COc2ncc(F)c(-c3ccc(Cc4nc5c(F)cc(C(=O)O)cc5n4C[C@@H]4CCO4)cc3)n2)c(F)c1 [Example 882]	0.18 nM	0.37 L/h/kg		
N#Cc1ccc(COc2cccc(-c3cc(F)c(Cc4nc5ccc(C(=O)NS(=O)(=O)C6CC6)cc5n4C[C@@H]4CCO4)cc3F)n2)c(F)c1 [Example 163, (S)-2-(4-(6-((4-cyano-2-fluorobenzyl)oxy)pyridin-2-yl)-2,5-difluorobenzyl)-N-(cyclopropylsulfonyl)-1-(oxetan-2-ylmethyl)-1H-benzo[d]imidazole-6-carboxamide]	1.41 nM	0.3 L/h/kg		
COCCn1c(Cc2ccc(-c3cccc(OC4CCOc5cc(C#N)ccc54)n3)cc2F)nc2ccc(C(=O)O)cc21 (stereo not drawn) [Example 246, 2-(4-(6-((7-cyanochroman-4-yl)oxy)pyridin-2-yl)-2-fluorobenzyl)-1-(2-methoxyethyl)-1H-benzo[d]imidazole-6-carboxylic acid]	1110 nM	0.28 L/h/kg		
COCCn1c(Cn2cc(F)c(-c3cccc(OCc4ccc(C#N)cc4F)n3)cc2=O)nc2ccc(C(=O)O)cc21 [Example 434]	2.86 nM	0.19 L/h/kg		
CN1CC2CC1(Cn1c(Cc3cc(F)c(-c4cccc(OCc5ccc(C#N)cc5F)n4)cc3F)nc3ccc(C(=O)O)cc31)C2 [Example 697]		0.11 L/h/kg		25.6 nM
COCCn1c(Cc2ccc(-c3cccc(OCc4ccc(C#N)cc4F)n3)cc2OC)nc2ccc(C(=O)O)cc21 [Example 33, 2-(4-(6-((4-cyano-2-fluorobenzyl)oxy)pyridin-2-yl)-2-methoxybenzyl)-1-(2-methoxyethyl)-1H-benzo[d]imidazole-6-carboxylic acid]	26.9 nM	0.3 L/h/kg		
COCCn1c(Cc2cc(F)c(-c3cccc(OCc4ccc(C#N)cc4F)n3)cc2F)nc2cc(C)c(C(=O)O)cc21 [Example 926, 2-(4-(6-((4-cyano-2-fluorobenzyl)oxy)pyridin-2-yl)-2,5-difluorobenzyl)-1-(2-methoxyethyl)-5-methyl-1H-benzo[d]imidazole-6-carboxylic acid]	11.8 nM	0.11 L/h/kg		
COCCn1c(Cn2cc(F)c(-c3cccc(OCc4ccc(C#N)cc4F)n3)cc2=O)nc2c(F)cc(C(=O)O)cc21 [Example 684]	0.29 nM	0.18 L/h/kg		
